A word on the IC50: it is the midpoint of a concentration-inhibition curve. A high value points to weaker potency in that assay.

One test deals with canine cardiac PDE, CAM. As to the kind of experiment: Canine cardiac PDE inhibition, CAM. It counts as biochemical. The conditions noted are these: n in table.
The target of a further test is T1, canine cardiac PDE, CGI (Canis lupus familiaris, UniProt A0A8I3NYE0).
T1 construct: CANINE CARDIAC PDE; from tissue; host or cells: dog heart
T1 sequence (A0A8I3NYE0 1-1135): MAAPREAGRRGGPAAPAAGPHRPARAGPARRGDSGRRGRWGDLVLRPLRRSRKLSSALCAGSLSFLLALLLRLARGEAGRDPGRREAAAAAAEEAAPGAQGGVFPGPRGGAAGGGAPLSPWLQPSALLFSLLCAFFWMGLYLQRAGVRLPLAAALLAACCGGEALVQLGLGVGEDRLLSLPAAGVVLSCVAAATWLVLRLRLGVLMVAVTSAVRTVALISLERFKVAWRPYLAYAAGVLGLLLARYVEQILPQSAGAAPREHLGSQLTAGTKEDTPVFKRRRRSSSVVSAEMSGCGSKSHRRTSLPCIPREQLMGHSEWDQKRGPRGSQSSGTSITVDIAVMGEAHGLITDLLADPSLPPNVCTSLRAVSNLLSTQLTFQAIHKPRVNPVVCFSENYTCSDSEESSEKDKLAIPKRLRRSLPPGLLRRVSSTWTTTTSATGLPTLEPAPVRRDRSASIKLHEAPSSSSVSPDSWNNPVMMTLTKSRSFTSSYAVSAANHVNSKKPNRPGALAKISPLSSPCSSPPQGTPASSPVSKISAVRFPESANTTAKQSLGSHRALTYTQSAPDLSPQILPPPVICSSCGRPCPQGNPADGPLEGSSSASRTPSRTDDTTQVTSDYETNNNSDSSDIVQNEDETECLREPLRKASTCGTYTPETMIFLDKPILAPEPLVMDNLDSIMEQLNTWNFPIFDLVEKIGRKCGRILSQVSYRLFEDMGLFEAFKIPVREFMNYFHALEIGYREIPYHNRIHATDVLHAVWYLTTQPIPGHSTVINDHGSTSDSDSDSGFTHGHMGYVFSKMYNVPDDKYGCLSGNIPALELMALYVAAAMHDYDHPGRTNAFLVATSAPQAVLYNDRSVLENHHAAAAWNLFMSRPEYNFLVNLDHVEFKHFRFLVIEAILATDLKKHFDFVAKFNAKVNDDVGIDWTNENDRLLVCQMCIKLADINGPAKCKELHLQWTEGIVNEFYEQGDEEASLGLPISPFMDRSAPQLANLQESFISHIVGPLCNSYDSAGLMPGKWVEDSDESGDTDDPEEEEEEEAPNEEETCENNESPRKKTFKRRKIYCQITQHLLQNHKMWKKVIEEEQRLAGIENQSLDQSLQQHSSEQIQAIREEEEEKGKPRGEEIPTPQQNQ
As to the kind of experiment: Canine cardiac PDE inhibition, CGI. Type of test: biochemical. The conditions noted are these: n in table.

Test [1] has as its system canine cardiac myofibrillar Ca++-dependent Mg++-ATPase. As to the kind of experiment: Measurement of myofibrillar Ca++-dependent Mg++-ATPase activity on canine cardiac myofibrils. Type of test: biochemical. The conditions noted are these: pH 7.0, 21° C.; for max (percent change of maximal ATPase activity): pCa=5.47. How it is done:
1. Measurement of myofibrillar Ca++-dependent Mq++-ATPase activity The effect on myofibrillar Ca++sensitivity and on maximal activity of myofibrillar Ca++-dependent Mg++-ATPase was determined on canine cardiac myofibrils. (a) Contractile protein preparation Cardiac myofibrils free of membrane contaminants were prepared from left ventricular tissue of dog hearts using a modification of the method described by SOLARO et al, Biochem. Biophys. Acta, 245, 259-262, (1971). Before centrifugation, the heart homogenate was filtered through gauze. After Triton X-100 treatments, the myofibrillar fraction was washed once by resuspension and centrifugation in 10 volumes of 1 mM EGTA, […], 30 mM imidazole, 2 mM MgCl2, pH 7.0. The pellet was then washed three times in 10 volumes of the same buffer without EGTA. Before the last centrifugation, the suspension of myofibrils was filtered through a stainless steel sieve with 0.25 mm meshes. Myofibrils were kept in pellet overnight. Before use, the pellet was suspended in a small amount of buffer, the protein concentration was determined by the method of BRADFORD M., Anal. Biochem., 1976, 72, 248 and adjusted in order to have a concentration between 6 and 7 mg/ml. (b) Myofibrillar ATPase activity Ca++-dependent myfibrillar ATPase activity was determined at 21° C., pH 7.0, by measuring the rate of release of inorganic phosphate. All assays were performed within 24hrs. of final purification, using the method described by SOLARO and […]., 51. 290-4,(1982). Reaction mixtures (4 ml) containing 0.6-0.7 mg/ml myofibrillar protein, 80mM KCl, 20 mM imidazole, 3 mM MgCl2, 1 mM EGTA, the desired amount of CaCl2, and the indicated concentration of drug or appropriate vehicle were preincubated for 6 min. prior to assay. The amount of CaCl2 was varied between 0 and 0.9 mM and the pCa (-log free Ca++) computed using 2.514×10^6 M^-1 as the apparent affinity of Ca++for EGTA at pH 7.0. Reactions were initiated by the addition of Na2 ATP to final concentration of 2 mM. After an incubation period of 12 min., reactions were quenched by the addition of an equal volume of ice-cold 10% trichloroacetic acid. The protein was pelleted by centrifugation (2000 g, 15 min.) and Pi was assayed in the supernatant fraction using a modification of the method described by LANZETTA et al, Anal. Biochem., 100, 95-97, (1979). The following solutions were prepared: (1) 3.7% ammonium heptamolybdate in 0.12 N H2 SO4 (2) 0.074% malachite green oxalate in 1% polyvinylic alcohol. The colour reagent was prepared by mixing an equal volume of solution (1) and (2) 15 min. before the assay. For the assay, 1,700 μl of 1% H2 SO4 and 1 ml of colour reagent were added to 100 μl of sample. Colour development occurred at room temperature for 30 min. and was quenched by the addition of 200 μl of 1M tri-potassium citrate. The absorbance was measured at 620 millimicrons. The effect of each compound, tested at the indicated concentration, on the relation between pCa and percent activation was determined taking 100% for the maximum ATPase activity obrained with vehicle alone. The effect on Ca++sensitivity was quantified by measuring the shift of the pCa giving 50% of the maximal control ATPase activity. The effect on maximal ATPase activity was expressed as the percent change of ATPase activity for pCa=5.47. Mean effects on myofibrillar ATPase activity were obtained from 1 to 5 preparations, (compounds tested at 2×10^-4 M).

The subject of a further test is anaesthetised dog. As to the kind of experiment: Cardiotonic activity in the dog (haemodynamics). The conditions noted are these: i.v. It counts as in vivo, dog (male Beagle).

Where a name gives a salt, the structure may show the parent alone.

Consider `CC1SC(=O)NN=C1c1ccc2c(c1)C(=NNC(N)=S)C(=O)N2` (stereo not drawn) [Example 4, 2-[2,3-Dihydro-5-(3,6-dihydro-6-methyl-2-oxo-2H-1,3,4-thiadiazin-5-yl)-2-oxo-1H-indol-3-ylidene]-hydrazine carbothioamide], for which the 50% inhibitory concentration (IC50) in the test with canine cardiac PDE, CAM is greater than 300000 nM; against canine cardiac PDE, CGI it was 440 nM.
In the test on canine cardiac PDE, CAM, `CC1SC(=O)NN=C1c1ccc2c(c1)C(=Nc1ccccc1)C(=O)N2` (stereo not drawn) [Example 6, 1,3-6-Dihydro-5-(3,6-dihydro-6-methyl-2-oxo-2H-1,3,4-thiadiazin-5-yl)-3-phenylimino-2H-indol-2-one] returned a half-maximal inhibitory concentration (IC50) greater than 300000 nM. In test [1] (30 μM), the “max (percent change of maximal ATPase activity)” value was -2 ± 6% and the “pCa (shift of the pCa giving 50% of the maximal control ATPase activity; Ca++ sensitivity)” value was “+0.38 ± 0.06”. In addition, the half-inhibitory concentration (IC50) against canine cardiac PDE, CGI amounted to 1200 nM.
On the same counts, the results for `CC1SC(=O)NN=C1c1ccc2c(c1)C(=NN)C(=O)N2` (stereo not drawn) [Example 7, 5-(3,6-Dihydro-6-methyl-2-oxo-2H-1,3,4-thiadiazin-5-yl)-1H -indole-2,3-dione 3-hydrazone] are 42000 nM, -3 ± 5%, “+0.17 ± 0.02” and 2300 nM.
On the same counts, the results for `CC1SC(=O)NN=C1c1ccc2c(c1)C(=C(C#N)C#N)C(=O)N2` (stereo not drawn) [Example 9, [5-(3,6-Dihydro-6-methyl-2-oxo-2H-1,3,4-thiadiazin-5-yl) -1,2-dihydro-2-oxo-3H-indol-3-ylidene]-propane-dinitrile] are 31000 nM, -20 ± 3%, “+0.05 ± 0.07” and 2100 nM.
On the same counts, the results for `CC1SC(=O)NN=C1c1ccc2c(c1)C(=Cc1ccccc1)C(=O)N2` (stereo not drawn) [Example 10, 1,3-Dihydro-5-(3,6-dihydro-6-methyl-2-oxo-2H-1,3,4-thiadiazin-5-yl)-3-phenylmethylene-2H-indol-2-one] are 20000 nM, -13 ± 3%, “+0.43 ± 0.07” and 350 nM.
Turning to `CC1SC(=O)NN=C1c1ccc2c(c1)C(=NNC(=N)N)C(=O)N2` (stereo not drawn) [Example 12, 5-(3,6-Dihydro-6-methyl-2-oxo-2H-1,3,4-thiadiazin-5-yl) -1H-indole-2,3-dione 3-[2-(aminomethanimino)hydrazone]], in test [1] (30 μM), the “max (percent change of maximal ATPase activity)” value is -1 ± 2% and the “pCa (shift of the pCa giving 50% of the maximal control ATPase activity; Ca++ sensitivity)” value was “+0.08 ± 0.02”. At canine cardiac PDE, CGI, this compound displayed a half-maximal inhibitory concentration (IC50) of 1800 nM.
The like results for `CC1SC(=O)NN=C1c1ccc2c(c1)C(=NNC1=NCCN1)C(=O)N2` (stereo not drawn) [Example 13] were, in that order, 2 ± 2%, “+0.07 ± 0.02” and 14000 nM.
As for `CC1SC(=O)NN=C1c1ccc2c(c1)C(=NNc1ccccc1C(F)(F)F)C(=O)N2` (stereo not drawn) [Example 31, 5-(3,6-Dihydro-6-methyl-2-oxo-2H-1,3,4-thiadiazin-5-yl) -1H-indole-2,3-dione 3-[(2-trifluoromethyl)phenylhydrazone]], in test [1] (30 μM), the “max (percent change of maximal ATPase activity)” value is recorded as 26 ± 7% and the “pCa (shift of the pCa giving 50% of the maximal control ATPase activity; Ca++ sensitivity)” value is recorded as “+0.43 ± 0.04”. Moreover, in the test with anaesthetised dog (0.01 mg/kg), the AoBF entry is reported as “+11 ± 5%”, the AoBP was -8 ± 1%, the H.R. result is reported as “+8 ± 2%” and the “dP/dt Max” value was “+9 ± 3%”. In addition, in the test with anaesthetised dog (0.03 mg/kg), the AoBF result is listed as “+19 ± 8%”, the AoBP is -15 ± 1%, the H.R. entry is reported as “+30 ± 4%” and the “dP/dt Max” value is “+44 ± 13%”. Also, in the test on anaesthetised dog (0.1 mg/kg), the AoBF entry was “+13 ± 6%”, the AoBP was -23 ± 2%, the H.R. result is reported as “+39 ± 6%” and the “dP/dt Max” value was “+93 ± 13%”.
`CC1SC(=O)NN=C1c1ccc2c(c1)C(=NNC(=O)c1cccnc1)C(=O)N2` (stereo not drawn) [Example 38, 3-Pyridinecarboxylic acid, 2-[2,3-dihydro-5-(3,6-dihydro-6-methyl-2-oxo-2H-1,3,4-thiadiazin-5-yl)-2-oxo-1H-indol-3-ylidenelhydrazide hydrochloride]: in test [1] (10 μM), the “max (percent change of maximal ATPase activity)” value is 34 ± 7% and the “pCa (shift of the pCa giving 50% of the maximal control ATPase activity; Ca++ sensitivity)” value is on record as 1.10 ± 0.02. For the same compound, in test [1] (30 μM), the “max (percent change of maximal ATPase activity)” value is 34 ± 5% and the “pCa (shift of the pCa giving 50% of the maximal control ATPase activity; Ca++ sensitivity)” value is “+1.05 ± 0.06”.
Take `CC1SC(=O)NN=C1c1ccc2c(c1)C(=NNC(=O)c1ccncc1)C(=O)N2` (stereo not drawn) [Example 39]: in test [1] (30 μM), the “max (percent change of maximal ATPase activity)” value was 3 ± 2% and the “pCa (shift of the pCa giving 50% of the maximal control ATPase activity; Ca++ sensitivity)” value is “+0.04 ± 0.02”.
Regarding `CC1SC(=O)N(C)N=C1c1ccc2c(c1)C(=NNc1ccccc1)C(=O)N2` (stereo not drawn) [Example 41], in test [1] (30 μM), the “max (percent change of maximal ATPase activity)” value was found to be 7 ± 2% and the “pCa (shift of the pCa giving 50% of the maximal control ATPase activity; Ca++ sensitivity)” value is “+0.11 ± 0.04”.
The like results for `CC1SC(=O)NN=C1c1ccc2c(c1)C(=NNc1ccc(C(F)(F)F)cc1)C(=O)N2` (stereo not drawn) [Example 42, 5-(3,6-Dihydro-6-methyl-2-oxo-2H-1,3,4-thiadiazin-5-yl) -1H-indole-2,3-dione 3-[4-trifluoromethylphenylhydrazone]] were, in that order, 11 ± 4% and “+0.30 ± 0.02”.

These data come from patent US5051417A, “Indolythiadiazines for treating heart failure” (Les Laboratoires Beecham S.A., priority 1988, dated 1991).
